The nature of data set [1]: Reference values of tocopherols, tocotrienols and metabolites in healthy grazing Thoroughbred horses (LC-MS). The data set is classed as in vivo, horse. The protocol: (§1) In particular, the levels of a panel of tocopherols and tocopherol metabolites were assessed by liquid chromatography-mass spectrometry (LC-MS) in samples obtained from eNAD affected horses and matched healthy controls. Reference ranges of α-TOH, γ-TOH, α-TOT, γ-TOT, α-CEHC, γ-CEHC, and α-CMBHC were determined from serum, plasma and urine samples obtained from 16 healthy adult Thoroughbred horses on pasture. Next a supplementation trial was performed employing samples from eNAD-affected horses and neurologically normal age and sex-matched controls. Levels were assessed at baseline and after administration of bioavailable RRR-alpha-tocopherol according to the sample collection schedule described (see e.g., FIG. 2).
(§2) Analytes were simultaneously quantified via ultra-performance liquid chromatography-tandem mass spectrometry (LC-MS). LC-MS analysis was carried out using a Bruker EVOQ LC-TQ Mass Spectrometer coupled with a Bruker Advance HPLC system (Bruker Corp, Freemont, Calif., USA). Mass spectral data for α- and γ-tocopherols and α- and γ-tocotrienols were acquired in the positive ion electrospray ionization (ESI) mode with the following retention times (RT) and scan events: γ-tocotrienol—RT 11.65 min, MRM 411.0>151.0 (CE 19.0V), α-tocotrienol—RT 12.0 min, MRM 425.1>165.1 (CE 20.0V), γ-tocopherol—RT 13.3 min, MRM 417.2>151.0 (CE 25.0V), 5-methyl-D3,7-methyl-D3 (TD6)—RT 13.8 min, MRM 437.4>171.0 (CE 27.0V), and α-tocopherol—RT 13.8 min, MRM 431.2>165.0 (CE 25.0V). Mass spectral data for α- and γ-CEHC and α-CMBHC were acquired in the negative ion ESI mode with the following retention times (RT) and scan events: α-CMBHC—RT 7.45 min, MRM 319.1>150.1 (CE 22.0V), α-CEHC—RT 5.70 min, MRM 277.0>233.1 (CE 14.0V), and γ-CEHC—RT 5.30 min, MRM 263.1>219.1 (CE13.0V). Quantification was carried out using a 10-point calibration curve covering the range from 0.1 ng/mL to 5,000 ng/mL and linear regression. Each level of calibration standard contained the internal standard TD6 at 100 ng/mL and CUDA at 2 ng/mL, matching their final concentrations in the analysis samples.

Data set [2] is described as follows: Initial trials: detected range of plasma vitamin E metabolites (LC-MS). The data set is classed as in vivo, horse. The protocol:
as §2
The limit of detection (ng/mL) and detected range (ng/mL), respectively, for each plasma vitamin E metabolite measured in these initial trials were as follows: α-TOH (0.1; 500-1000), γ-TOH (0.2; 10-15), α-tocotrienol (0.2; 0.2-0.6), γ-tocotrienol (0.2; 5-10), α-CMBHC (<0.05; 0.1-0.4), γ-CEHC (<0.05; 0.2-0.6), and α-CEHC (<0.05; 0.1-0.2).

A short description of data set [3]: Supplementation trial: serum levels in eNAD-affected and control horses at baseline and after bioavailable RRR-alpha-tocopherol (LC-MS). The data set is classed as in vivo, horse. The protocol: This example describes investigations into the role of metabolism of α-TOH in horses affected with eNAD/EDM. Accordingly, the rate of α-TOH and γ-TOH metabolism was determined through the measurement of CEHCs in healthy and eNAD-affected horses following α-TOH supplementation.
as §1, §2
Simultaneous quantification of α-TOH, γ-TOH, α-tocotrienol, γ-tocotrienol, α-CEHC, γ-CEHC, and α-CMBHC has not been previously performed in the horse. Data was Log-transformed. Correspondence between sample types (e.g., plasma vs. serum) was evaluated and statistical testing by Mixed-model ANOVA was performed (fixed variables=disease, time; randomized variable=horse; 2-way interactions; p<0.05).

For data set [4] the following is noted: earlier study; cited from earlier work.
Where [5] appears, read: serum, healthy grazing TBs, tocotrienols.

In the case of `Cc1c(C)c2c(c(C)c1O)CCC(C)(CCC(=O)O)O2` (stereo not drawn) [α-CEHC, alpha-carboxyethyl-hydroxychroman], in data set [1] (in vivo), the “mean value for healthy grazing TBs” value is reported as 0.33±0.12, the “median value for healthy grazing TBs” value was 0.31 and the “range of values for healthy grazing TBs” value is 0.18-0.67. The “detected range of plasma vitamin E metabolite” value (“detected range” below) in data set [2] (in vivo) fell in the range of 0.1 to 0.2 ng/mL.
Take `Cc1c(C)c2c(c(C)c1O)CCC(C)(CCCC(C)C(=O)O)O2` (stereo not drawn) [α-CMBHC, 2-(4-Carboxy-4-methylbutyl)-6-hydroxy-2,5,7,8-tetramethylchroman]: the “Serum α-CMBHC (median, range)” value in data set [3] (horse, in vivo, 56 day) was 0.32 (0.12-0.40) ng/mL. In addition, in data set [3] (horse, in vivo, Serum α-CMBHC (median, range)), the concentration at 56 day was 0.28 ng/mL. Further, in data set [1] (Thoroughbred, horse, in vivo), the “mean value for healthy grazing TBs” value is recorded as 0.72±0.37, the “median value for healthy grazing TBs” value was found to be 0.6 and the “range of values for healthy grazing TBs” value is on record as 0.32-1.71. In addition, the “detected range” value in data set [2] (horse, in vivo) was 0.1 to 0.4 ng/mL.
`Cc1c(C)c2c(c(C)c1O)CC[C@@](C)(CCC[C@H](C)CCC[C@H](C)CCCC(C)C)O2` [α-TOH, alpha-tocopherol, reference compound]: the “α-TOH absorption indices, eNAD-affected vs unaffected horses” value in data set [4] is “no significant differences”. In addition, the “rate of α-TOH metabolism in eNAD horses vs control horses” value in data set [3] (in vivo) is listed as “faster rates than control horses”. In data set [1] (in vivo), the “mean value for healthy grazing TBs” value is recorded as 4292±892, the “median value for healthy grazing TBs” value is given as 4348 and the “range of values for healthy grazing TBs” value is 2855-6299. In addition, the “detected range” value in data set [2] (in vivo) lay in the range of 500 to 1000 ng/mL.
Consider `Cc1c(O)cc2c(c1C)OC(C)(CCC(=O)O)CC2` (stereo not shown) [γ-CEHC, gamma-carboxyethyl-hydroxychroman], for which, in data set [1] (in vivo), the “mean value for healthy grazing TBs” value is 0.43±0.18, the “median value for healthy grazing TBs” value is reported as 0.38 and the “range of values for healthy grazing TBs” value was 0.26-0.89. Besides, the “detected range” value in data set [2] (in vivo) was 0.2 to 0.6 ng/mL.
Take `Cc1c(O)cc2c(c1C)O[C@](C)(CCC[C@H](C)CCC[C@H](C)CCCC(C)C)CC2` [γ-TOH, gamma-tocopherol]: in data set [1] (Thoroughbred, horse, in vivo), the “mean value for healthy grazing TBs” value came to 27.1±9.82, the “median value for healthy grazing TBs” value is listed as 25.6 and the “range of values for healthy grazing TBs” value was 10.3-44.7. The “detected range” value in data set [2] (horse, in vivo) was 10 to 15 ng/mL.
As to `CC(C)=CCC/C(C)=C/CC/C(C)=C/CC[C@]1(C)CCc2cc(O)c(C)c(C)c2O1` [γ-TOT, gamma-tocotrienol], the “difference in serum tocotrienol levels with time or disease” value in data set [3] (serum, eNAD vs control horses, over time) is on record as “no significant difference”. Also, in data set [1] (setting [5]), the “mean value in healthy grazing TBs” value was found to be 0.13 ± 0.36 ng/mL, the “median value in healthy grazing TBs” value worked out at 0.02 ng/mL and the “range of values in healthy grazing TBs” value lay in the range of 0.02 to 1.79 ng/mL. Moreover, in data set [2] (plasma, initial trials), the “detected range” value was in the range of 5 to 10 ng/mL.
alpha-tocotrienol [α-TOT]: in data set [3] (in vivo), the “difference in serum tocotrienol levels with time or disease” value is given as “no significant difference”. In data set [1] (in vivo), the “mean value in healthy grazing TBs” value worked out at 0.31 ± 0.36 ng/mL, the “median value in healthy grazing TBs” value is 0.15 ng/mL and the “range of values in healthy grazing TBs” value was 0.004 to 1 ng/mL. Besides, in data set [2] (in vivo), the “detected range” value lay within 0.2 to 0.6 ng/mL.
